Test results published in US20250197387A1, “BCL-XL DEGRADERS AND USES THEREOF” (Kymera Therapeutics, Inc., priority 2021, published 2025).

Tests used:
Type in all cases: cell-based
Caki-2 cells = assay: CTG (CellTiter-Glo) cell viability assay, Caki-2; details: Homo sapiens, 72 h, 3 day incubation, read-out: CTG Chempartner - Caki-2 3 day: Average external-IC50
Summary of the method: (§1)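 Luminescence from CellTiter-Glo, read after 3 days of compound exposure at 37 °C, gave viability; IC50 values came from three-parameter logistic curves. Cells were plated at 10,000 per well and dosed over nine 1:3 steps topping at 10 μM.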

MOLT-4 cells = assay: CTG (CellTiter-Glo) cell viability assay, MOLT-4; details: Homo sapiens, MOLT-4, 72 h, 3 day incubation, read-out: CTG Cell Viability Assay - MOLT-4 3 day: Average external-IC50
Summary of the method: as §1

BCL-XL = biological target: T1, BCL-XL (Homo sapiens, UniProt Q07817); assay: Bcl-xL ELISA degradation in MOLT-4 cells, 6 h; details: for DC50: read-out: Bcl-xL ELISA in MOLT-4 degradation 6 h: Mean external-Abs DC50
T1 construct: endogenous in cells; host or cells: MOLT-4
T1 sequence (Q07817 whole entry): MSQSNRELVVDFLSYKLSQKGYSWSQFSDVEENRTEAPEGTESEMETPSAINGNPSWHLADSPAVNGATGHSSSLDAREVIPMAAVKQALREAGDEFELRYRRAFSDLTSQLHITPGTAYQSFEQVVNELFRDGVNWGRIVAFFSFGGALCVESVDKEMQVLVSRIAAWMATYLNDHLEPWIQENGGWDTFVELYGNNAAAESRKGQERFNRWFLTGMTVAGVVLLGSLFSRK
Experimental: The letter codes for BCL-XL DC50 include: A (<0.01 μM); B (0.01-0.1 μM); C (>[…]); D (>0.5-1.0 μM); and E (>1.0 μM). The letter codes for Dmax % include A (>75%); B (50 to 75%); C (<50%).

IC50 (MOLT-4 cells)	Dmax (BCL-XL)	DC50 (BCL-XL)	Structure (SMILES)	IC50 (Caki-2 cells)
< 100 nM	> 75%	< 10 nM	C#Cc1ccc([C@H](C)NC(=O)[C@@H]2C[C@@H](O)CN2C(=O)[C@@H](NC(=O)CCCCCS(=O)(=O)NC(=O)c2nc(N(C)c3cc(C)c(Nc4nc5ccccc5s4)nn3)ccc2-c2cnn(CC34CC5CC(CC(C5)C3)C4)c2C)C(C)(C)C)c(O)c1 [I-475]	> 10 µM
< 100 nM	> 75%	10 to 100 nM	Cc1cc(N(C)c2ccc(-c3cnn(CC45CC6CC(CC(C6)C4)C5)c3C)c(C(=O)NS(=O)(=O)c3ccc(N4CC(C(=O)N[C@H](C(=O)N5C[C@H](O)C[C@H]5C(=O)NCc5ccc(-c6scnc6C)cc5)C(C)(C)C)C4)cc3)n2)nnc1Nc1nc2ccccc2s1 [I-437]	> 10 µM
1000 to 3000 nM	> 75%	< 10 nM	Cc1ncsc1-c1ccc([C@H](CO)NC(=O)[C@@H]2C[C@@H](O)CN2C(=O)[C@@H](NC(=O)CCNCCS(=O)(=O)NC(=O)c2nc(N3CCc4cccc(C(=O)Nc5nc6cccnc6s5)c4C3)ccc2-c2cnn(CC3CCCCC3)c2C)C(C)(C)C)cc1 [I-377]	> 10 µM
< 100 nM	> 75%	< 10 nM	C#Cc1ccc([C@H](C)NC(=O)[C@@H]2C[C@@H](O)CN2C(=O)[C@@H](NC(=O)CCCCCS(=O)(=O)NC(=O)c2nc(N3CCc4cccc(C(=O)Nc5nc6cccnc6s5)c4C3)ccc2-c2cnn(CC3CCCCC3)c2C)C(C)(C)C)c(OCCO)c1 [I-480]	> 10 µM
< 100 nM	> 75%	10 to 100 nM	Cc1ncsc1-c1ccc([C@H](C)NC(=O)[C@@H]2C[C@@H](O)CN2C(=O)[C@@H](NC(=O)C#CC2CCN(S(=O)(=O)NC(=O)c3nc(N4CCc5cccc(C(=O)Nc6nc7ccccc7s6)c5C4)ccc3-c3cnn(CC4CCCCC4)c3C)CC2)C(C)(C)C)cc1 [I-420]	1 to 10 µM
100 to 1000 nM	> 75%	< 10 nM	Cc1cc(N(C)c2ccc(-c3cnn(CC45CC6CC(CC(C6)C4)C5)c3C)c(C(=O)NS(=O)(=O)CCCCC(=O)N[C@H](C(=O)N3C[C@H](O)C[C@H]3C(=O)NCc3ccc(-c4scnc4C)cc3)C(C)(C)C)n2)nnc1Nc1nc2ccccc2s1 [I-371]	> 10 µM

Second part, the compound before the results:

Structure (SMILES)	IC50 (MOLT-4 cells)	Dmax (BCL-XL)	DC50 (BCL-XL)	IC50 (Caki-2 cells)
Cc1ncsc1-c1ccc([C@H](C)NC(=O)[C@@H]2C[C@@H](O)CN2C(=O)[C@@H](NC(=O)C2CCN(c3ccc(S(=O)(=O)NC(=O)c4nc(N5CCc6cccc(C(=O)Nc7nc8ccccc8s7)c6C5)ccc4-c4cnn(CC5CCCCC5)c4C)cc3)C(=O)C2)C(C)(C)C)cc1 (some centres unmarked) [I-299]	100 to 1000 nM	> 75%	100 to 500 nM	1 to 10 µM
Cc1ncsc1-c1ccc([C@H](C)NC(=O)[C@@H]2C[C@@H](O)CN2C(=O)[C@@H](NC(=O)N2CC(CN3CCC(S(=O)(=O)NC(=O)c4nc(N5CCc6cccc(C(=O)Nc7nc8ccccc8s7)c6C5)ccc4-c4cnn(CC5CCCCC5)c4C)CC3)C2)C(C)(C)C)cc1 [I-336]	1000 to 3000 nM	> 75%	10 to 100 nM	> 10 µM
C#Cc1ccc([C@H](C)NC(=O)[C@@H]2C[C@@H](O)CN2C(=O)[C@@H](NC(=O)CCCCS(=O)(=O)NC(=O)c2nc(N(C)c3cc(C)c(Nc4nc5ccccc5s4)nn3)ccc2-c2cnn(CC34CC5CC(CC(C5)C3)C4)c2C)C(C)(C)C)cc1 [I-368]	< 100 nM	> 75%	10 to 100 nM	> 10 µM
Cc1ncsc1-c1ccc([C@H](C)NC(=O)[C@@H]2C[C@@H](O)CN2C(=O)[C@@H](NC(=O)CCCCCS(=O)(=O)NC(=O)c2nc(N3CCc4cccc(C(=O)Nc5nc6ccccc6s5)c4C3)ccc2-c2cccc3c2cnn3C(C)C)C(C)(C)C)cc1 [I-302]	1000 to 3000 nM	50 to 75%	500 to 1000 nM	1 to 10 µM
Cc1ncsc1-c1ccc([C@H](C)NC(=O)[C@@H]2C[C@@H](O)CN2C(=O)[C@@H](NC(=O)CCCCCS(=O)(=O)NC(=O)c2nc(N3CCc4cccc(C(=O)Nc5nc6cccnc6s5)c4C3)ccc2-c2cnn(CC3CCCCC3)c2C)C(C)(C)C)cc1 [I-363]	< 100 nM	> 75%	10 to 100 nM	> 10 µM
